According to paper PMC8371461 (Frontiers in Pharmacology, 2021):

Columns and labels:
CSNK2A2 = molecular target: T1, CSNK2A2 (Homo sapiens, UniProt P19784); experiment: kinome scan; format: binding; conditions: 10 µM
T1 construct: purchased DiscoverX (KINOMEscan)

FLT3(N841I) = molecular target: T2, FLT3(N841I) (Homo sapiens, UniProt P36888, N841I); experiment: kinome scan; format: binding; conditions: 10 µM
T2 construct: purchased DiscoverX (KINOMEscan)

[1] = tested on: Rat pregnane X receptor (rPXR) signaling pathway; parameters: method as in CHEMBL2114797; conditions: reported activity, data mining; ref CHEMBL2114797; cited from earlier work
[2] = molecular target: T3, ABL1(T315I)-nonphosphorylated (Homo sapiens, UniProt P00519, T315I); experiment: kinome scan; format: binding; conditions: 10 µM
T3 construct: purchased DiscoverX (KINOMEscan)

MARK4 = molecular target: T4, MARK4 (Homo sapiens, UniProt Q96L34); experiment: kinome scan; format: binding; conditions: 10 µM
T4 construct: purchased DiscoverX (KINOMEscan)

LRRK2(G2019S) = molecular target: T5, LRRK2(G2019S) (Homo sapiens, UniProt Q5S007, G2019S); experiment: kinome scan; format: binding; conditions: 10 µM
T5 construct: purchased DiscoverX (KINOMEscan)

AKT1 = molecular target: T6, AKT1 (Homo sapiens, UniProt P31749); experiment: kinome scan; format: binding; conditions: 10 µM
T6 construct: purchased DiscoverX (KINOMEscan)

LATS2 = molecular target: T7, LATS2 (Homo sapiens, UniProt Q9NRM7); experiment: kinome scan; format: binding; conditions: 10 µM
T7 construct: purchased DiscoverX (KINOMEscan)
T7 sequence (Q9NRM7 whole entry): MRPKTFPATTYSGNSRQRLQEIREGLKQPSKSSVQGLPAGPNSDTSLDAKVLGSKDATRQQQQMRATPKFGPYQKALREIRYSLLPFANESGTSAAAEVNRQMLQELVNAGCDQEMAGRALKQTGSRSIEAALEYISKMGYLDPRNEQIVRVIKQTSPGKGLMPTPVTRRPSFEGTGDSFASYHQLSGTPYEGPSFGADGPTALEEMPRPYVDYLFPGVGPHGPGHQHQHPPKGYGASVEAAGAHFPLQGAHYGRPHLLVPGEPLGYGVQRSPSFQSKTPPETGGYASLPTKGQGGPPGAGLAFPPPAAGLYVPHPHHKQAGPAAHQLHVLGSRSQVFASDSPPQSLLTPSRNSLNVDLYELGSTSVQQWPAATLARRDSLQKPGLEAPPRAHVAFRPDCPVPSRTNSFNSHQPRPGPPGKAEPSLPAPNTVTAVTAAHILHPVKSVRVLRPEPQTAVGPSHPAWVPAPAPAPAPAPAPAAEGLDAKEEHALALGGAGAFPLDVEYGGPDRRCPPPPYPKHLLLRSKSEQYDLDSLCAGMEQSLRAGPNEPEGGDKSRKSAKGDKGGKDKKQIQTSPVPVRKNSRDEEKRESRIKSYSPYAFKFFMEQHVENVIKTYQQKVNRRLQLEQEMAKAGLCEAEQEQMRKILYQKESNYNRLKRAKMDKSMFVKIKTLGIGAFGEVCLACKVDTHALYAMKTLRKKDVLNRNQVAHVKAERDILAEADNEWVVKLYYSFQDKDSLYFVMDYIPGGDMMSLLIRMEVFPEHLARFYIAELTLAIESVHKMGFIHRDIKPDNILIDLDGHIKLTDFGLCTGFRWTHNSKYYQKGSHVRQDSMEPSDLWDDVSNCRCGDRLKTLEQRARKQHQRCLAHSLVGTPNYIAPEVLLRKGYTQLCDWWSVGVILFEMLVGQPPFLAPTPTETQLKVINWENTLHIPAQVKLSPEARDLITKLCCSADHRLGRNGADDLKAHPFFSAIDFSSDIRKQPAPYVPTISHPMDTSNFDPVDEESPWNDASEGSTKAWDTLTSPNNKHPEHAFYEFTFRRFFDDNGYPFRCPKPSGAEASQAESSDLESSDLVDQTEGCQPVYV

T6 sequence (P31749 whole entry): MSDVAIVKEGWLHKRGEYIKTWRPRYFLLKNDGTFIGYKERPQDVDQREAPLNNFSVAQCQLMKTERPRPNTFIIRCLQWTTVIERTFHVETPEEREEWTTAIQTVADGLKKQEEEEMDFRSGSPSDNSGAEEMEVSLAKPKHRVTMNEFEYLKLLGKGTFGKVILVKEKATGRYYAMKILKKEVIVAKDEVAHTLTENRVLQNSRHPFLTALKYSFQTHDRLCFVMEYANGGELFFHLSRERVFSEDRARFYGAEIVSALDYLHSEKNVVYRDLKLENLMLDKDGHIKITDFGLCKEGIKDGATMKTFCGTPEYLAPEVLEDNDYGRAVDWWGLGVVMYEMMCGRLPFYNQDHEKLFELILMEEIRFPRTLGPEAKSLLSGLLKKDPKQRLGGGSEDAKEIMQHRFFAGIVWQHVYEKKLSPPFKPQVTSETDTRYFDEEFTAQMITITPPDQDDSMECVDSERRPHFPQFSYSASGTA
T4 sequence (Q96L34 whole entry): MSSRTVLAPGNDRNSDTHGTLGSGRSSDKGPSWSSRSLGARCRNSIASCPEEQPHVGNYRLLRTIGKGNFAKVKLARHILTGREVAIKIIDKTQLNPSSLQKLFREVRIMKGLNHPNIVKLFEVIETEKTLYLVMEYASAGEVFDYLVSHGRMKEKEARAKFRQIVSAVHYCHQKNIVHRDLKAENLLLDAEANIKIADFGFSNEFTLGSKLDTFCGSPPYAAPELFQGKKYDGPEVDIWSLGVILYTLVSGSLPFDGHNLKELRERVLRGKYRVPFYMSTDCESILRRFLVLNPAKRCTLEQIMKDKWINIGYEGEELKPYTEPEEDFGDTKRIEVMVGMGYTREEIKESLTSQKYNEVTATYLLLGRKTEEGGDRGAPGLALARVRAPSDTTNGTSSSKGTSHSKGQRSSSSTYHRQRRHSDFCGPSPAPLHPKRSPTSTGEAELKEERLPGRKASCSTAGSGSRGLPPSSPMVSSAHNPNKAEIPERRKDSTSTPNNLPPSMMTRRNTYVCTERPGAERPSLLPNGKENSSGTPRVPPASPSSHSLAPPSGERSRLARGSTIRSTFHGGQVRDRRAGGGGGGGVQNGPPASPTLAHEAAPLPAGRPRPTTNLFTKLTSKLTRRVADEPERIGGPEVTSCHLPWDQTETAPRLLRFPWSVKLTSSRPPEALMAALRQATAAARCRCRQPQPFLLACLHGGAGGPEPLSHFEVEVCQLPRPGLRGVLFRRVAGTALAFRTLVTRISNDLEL
T1 sequence (P19784 whole entry): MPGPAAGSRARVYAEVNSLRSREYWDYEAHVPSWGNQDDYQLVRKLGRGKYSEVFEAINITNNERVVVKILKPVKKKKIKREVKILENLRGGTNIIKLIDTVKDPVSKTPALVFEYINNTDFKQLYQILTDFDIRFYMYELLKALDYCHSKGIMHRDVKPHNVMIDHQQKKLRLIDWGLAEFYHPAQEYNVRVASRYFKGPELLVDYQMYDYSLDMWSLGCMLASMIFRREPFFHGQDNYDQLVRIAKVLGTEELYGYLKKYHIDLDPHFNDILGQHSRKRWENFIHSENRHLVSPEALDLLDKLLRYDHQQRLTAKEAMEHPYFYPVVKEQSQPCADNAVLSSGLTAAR

**Q.** For `Nc1ccc(N=Nc2ccccc2)c(N)n1` [phenazopyridine, 2,6-diamino-3-(phenylazo)pyridine], which kinase inhibition (CSNK2A2) is on record?
**A.** 63

**Q.** What about the “remaining binding (% of control)” value (FLT3(N841I)) of the same compound?
**A.** 46

**Q.** And the Concentration [1]?
**A.** 7 µM

**Q.** And the kinase inhibition [2]?
**A.** 100

**Q.** And the kinase inhibition (MARK4)?
**A.** 84

**Q.** And the kinase inhibition (LRRK2(G2019S))?
**A.** 91

**Q.** And the kinase inhibition (AKT1)?
**A.** 99

**Q.** And the kinase inhibition (LATS2)?
**A.** 100
